ChEMBL document CHEMBL3112491, “3-(5-)-Amino-o-diarylisoxazoles: regioselective synthesis and antitubulin activity” (2014)

Key:
Format in all cases: functional
[1] = system: HL-60(TB); experiment: Growth inhibition of human HL-60(TB) cells after 48 hrs by sulforhodamine B assay; settings: HL-60, 48 h
[2] = system: UACC-62; experiment: Growth inhibition of human UACC62 cells after 48 hrs by sulforhodamine B assay; settings: UACC-62, 48 h
[3] = system: ACHN; experiment: Growth inhibition of human ACHN cells after 48 hrs by sulforhodamine B assay
[4] = system: RPMI-8226; experiment: Growth inhibition of human RPMI8226 cells after 48 hrs by sulforhodamine B assay; settings: RPMI-8226, 48 h
[5] = Growth inhibition of human NCI-ADR-RES cells after 48 hrs by sulforhodamine B assay
[6] = system: MCF7; experiment: Growth inhibition of human MCF7 cells after 48 hrs by sulforhodamine B assay; settings: MCF7, 48 h
[7] = system: DU-145; experiment: Growth inhibition of human DU145 cells after 48 hrs by sulforhodamine B assay; settings: DU-145, 48 h
[8] = system: MDA-MB-468; experiment: Growth inhibition of human MDA-MB-468 cells after 48 hrs by sulforhodamine B assay; settings: MDA-MB-468, 48 h
[9] = system: TK-10; experiment: Growth inhibition of human TK10 cells after 48 hrs by sulforhodamine B assay; settings: TK-10, 48 h
[10] = Growth inhibition of human EKVX cells after 48 hrs by sulforhodamine B assay
[11] = system: NCI-H522; experiment: Growth inhibition of human NCI-H522 cells after 48 hrs by sulforhodamine B assay; settings: NCI-H522, 48 h
[12] = system: CCRF-CEM; experiment: Growth inhibition of human CCRF-CEM cells after 48 hrs by sulforhodamine B assay
[13] = system: HCT-15; experiment: Growth inhibition of human HCT15 cells after 48 hrs by sulforhodamine B assay; settings: HCT-15, 48 h
[14] = system: HCT-116; experiment: Growth inhibition of human HCT116 cells after 48 hrs by sulforhodamine B assay; settings: HCT-116, 48 h
[15] = system: PC-3; experiment: Growth inhibition of human PC3 cells after 48 hrs by sulforhodamine B assay; settings: PC-3, 48 h
[16] = system: SNB-19; experiment: Growth inhibition of human SNB19 cells after 48 hrs by sulforhodamine B assay; settings: SNB-19, 48 h
[17] = system: SW-620; experiment: Growth inhibition of human SW620 cells after 48 hrs by sulforhodamine B assay; settings: SW-620, 48 h
[18] = system: A549; experiment: Growth inhibition of human A549/ATCC cells after 48 hrs by sulforhodamine B assay; settings: A549, 48 h
[19] = system: HOP-62; experiment: Growth inhibition of human HOP62 cells after 48 hrs by sulforhodamine B assay; settings: HOP-62, 48 h
[20] = Growth inhibition of human Hs 578T cells after 48 hrs by sulforhodamine B assay
[21] = system: Malme-3M; experiment: Growth inhibition of human MALME-3M cells after 48 hrs by sulforhodamine B assay
[22] = system: MDA-MB-435; experiment: Growth inhibition of human MDA-MB-435 cells after 48 hrs by sulforhodamine B assay; settings: MDA-MB-435, 48 h
[23] = system: NCI-H322M; experiment: Growth inhibition of human NCI-H322M cells after 48 hrs by sulforhodamine B assay
[24] = system: MOLT-4; experiment: Growth inhibition of human MOLT4 cells after 48 hrs by sulforhodamine B assay; settings: MOLT-4, 48 h
[25] = system: SK-MEL-5; experiment: Growth inhibition of human SK-MEL-5 cells after 48 hrs by sulforhodamine B assay; settings: SK-MEL-5, 48 h
[26] = system: KM12; experiment: Growth inhibition of human KM12 cells after 48 hrs by sulforhodamine B assay; settings: KM12, 48 h
[27] = system: BT-549; experiment: Growth inhibition of human BT549 cells after 48 hrs by sulforhodamine B assay; settings: BT-549, 48 h
[28] = system: LOX IMVI; experiment: Growth inhibition of human LOXIMVI cells after 48 hrs by sulforhodamine B assay
[29] = system: A498; experiment: Growth inhibition of human A498 cells after 48 hrs by sulforhodamine B assay; settings: A498, 48 h
[30] = system: OVCAR-3; experiment: Growth inhibition of human OVCAR3 cells after 48 hrs by sulforhodamine B assay; settings: OVCAR-3, 48 h
[31] = Growth inhibition of human OVCAR4 cells after 48 hrs by sulforhodamine B assay; settings: OVCAR-4, 48 h
[32] = system: Paracentrotus lividus; experiment: Antimitotic activity in sea urchin fertilized egg assessed as cleavage arrest treated at 8 to 20 mins post-fertilization measured at 2.5 to 5.5 hrs post-fertilization
[33] = system: SK-MEL-2; experiment: Growth inhibition of human SK-MEL-2 cells after 48 hrs by sulforhodamine B assay; settings: SK-MEL-2, 48 h
[34] = system: SR; experiment: Growth inhibition of human SR cells after 48 hrs by sulforhodamine B assay
[35] = system: Paracentrotus lividus; experiment: Antimitotic activity in sea urchin fertilized egg assessed as cleavage alteration treated at 8 to 20 mins post-fertilization measured at 2.5 to 5.5 hrs post-fertilization
[36] = Growth inhibition of human HCC2998 cells after 48 hrs by sulforhodamine B assay; settings: HCC 2998, 48 h
[37] = Growth inhibition of human UACC257 cells after 48 hrs by sulforhodamine B assay; settings: UACC-257, 48 h
[38] = system: IGROV-1; experiment: Growth inhibition of human IGROV1 cells after 48 hrs by sulforhodamine B assay; settings: IGROV-1, 48 h
[39] = system: T47D; experiment: Growth inhibition of human T47D cells after 48 hrs by sulforhodamine B assay
[40] = system: 786-0; experiment: Growth inhibition of human 786-0 cells after 48 hrs by sulforhodamine B assay; settings: 786-0, 48 h
[41] = Growth inhibition of human UO31 cells after 48 hrs by sulforhodamine B assay; settings: UO-31, 48 h
[42] = system: SNB-75; experiment: Growth inhibition of human SNB75 cells after 48 hrs by sulforhodamine B assay; settings: SNB-75, 48 h
[43] = system: OVCAR-8; experiment: Growth inhibition of human OVCAR8 cells after 48 hrs by sulforhodamine B assay; settings: OVCAR-8, 48 h
[44] = system: SF-295; experiment: Growth inhibition of human SF295 cells after 48 hrs by sulforhodamine B assay; settings: SF-295, 48 h
[45] = system: SF-268; experiment: Growth inhibition of human SF268 cells after 48 hrs by sulforhodamine B assay; settings: SF-268, 48 h
[46] = system: SK-MEL-28; experiment: Growth inhibition of human SK-MEL-28 cells after 48 hrs by sulforhodamine B assay; settings: SK-MEL-28, 48 h
[47] = system: NCI-H23; experiment: Growth inhibition of human NCI-H23 cells after 48 hrs by sulforhodamine B assay; settings: NCI-H23, 48 h
[48] = system: M14; experiment: Growth inhibition of human M14 cells after 48 hrs by sulforhodamine B assay; settings: M14, 48 h
[49] = system: COLO 205; experiment: Growth inhibition of human COLO205 cells after 48 hrs by sulforhodamine B assay; settings: COLO 205, 48 h
[50] = system: MDA-MB-231; experiment: Growth inhibition of human MDA-MB-231 cells after 48 hrs by sulforhodamine B assay; settings: MDA-MB-231, 48 h
[51] = system: NCI-H226; experiment: Growth inhibition of human NCI-H226 cells after 48 hrs by sulforhodamine B assay; settings: NCI-H226, 48 h
[52] = system: SK-OV-3; experiment: Growth inhibition of human SKOV3 cells after 48 hrs by sulforhodamine B assay; settings: SK-OV-3, 48 h
[53] = system: SN12C; experiment: Growth inhibition of human SN12C cells after 48 hrs by sulforhodamine B assay
[54] = system: NCI-H460; experiment: Growth inhibition of human NCI-H460 cells after 48 hrs by sulforhodamine B assay; settings: NCI-H460, 48 h
[55] = system: U-251; experiment: Growth inhibition of human U251 cells after 48 hrs by sulforhodamine B assay; settings: U-251, 48 h
[56] = Growth inhibition of human OVCAR5 cells after 48 hrs by sulforhodamine B assay; settings: OVCAR-5, 48 h
[57] = Growth inhibition of human HOP92 cells after 48 hrs by sulforhodamine B assay; settings: HOP-92, 48 h
[58] = Growth inhibition of human SF539 cells after 48 hrs by sulforhodamine B assay; settings: SF-539, 48 h
[59] = Growth inhibition of human RXF393 cells after 48 hrs by sulforhodamine B assay; settings: RXF 393, 48 h
[60] = system: Paracentrotus lividus; experiment: Microtubule destabilizing activity in sea urchin free-swimming blastula assessed as embryo spinning treated at 9 to 10 hrs post-fertilization measured after 0.15 to 15 hrs
[61] = system: HT-29; experiment: Growth inhibition of human HT-29 cells after 48 hrs by sulforhodamine B assay; settings: HT-29, 48 h
[62] = system: CAKI-1; experiment: Growth inhibition of human CAKI-1 cells after 48 hrs by sulforhodamine B assay; settings: CAKI-1, 48 h
[63] = system: K562; experiment: Growth inhibition of human K562 cells after 48 hrs by sulforhodamine B assay; settings: K562, 48 h

For COc1ccc(-c2onc(N)c2-c2cc(OC)c3c(c2)OCO3)cc1, the GI50 [1] was 1300 nM, the GI50 [2] was 2450 nM and the GI50 [3] was 6.74 µM. For the same compound, the GI50 [4] was 4.07 µM, the GI50 [5] was 684 nM and the GI50 [6] was 962 nM. It also gave a GI50 [7] of 3.99 µM, a GI50 [8] of 538 nM and a GI50 [9] of 12.3 µM. For the same compound, the GI50 [10] was 6.58 µM, the GI50 [11] was 796 nM and the GI50 [12] was 2470 nM. It also gave a GI50 [13] of 1140 nM, a GI50 [14] of 2010 nM and a GI50 [15] of 4.28 µM. The GI50 [16] was 6.74 µM, the GI50 [17] was 495 nM and the GI50 [18] was 2740 nM. For the same compound, the GI50 [19] was 4.59 µM, the GI50 [20] was 2940 nM and the GI50 [21] was 8.51 µM. The GI50 [22] was 290 nM, the GI50 [23] was 5.98 µM and the GI50 [24] was 3.28 µM. It also gave a GI50 [25] of 2450 nM, a GI50 [26] of 2230 nM and a GI50 [27] of 2430 nM. The GI50 [28] was 3.26 µM, the GI50 [29] was 1810 nM and the GI50 [30] was 2390 nM. For the same compound, the GI50 [31] was 16.1 µM, the EC [32] was greater than 4 µM and the GI50 [33] was 1320 nM. It also gave a GI50 [34] of 449 nM, an EC [35] of 0.2 µM and a GI50 [36] of 2770 nM. For the same compound, the GI50 [37] was 3.16 µM, the GI50 [38] was 10.6 µM and the GI50 [39] was 4.41 µM. It also gave a GI50 [40] of 6.56 µM, a GI50 [41] of 14.3 µM and a GI50 [42] of 1750 nM. For the same compound, the GI50 [43] was 4.26 µM, the GI50 [44] was 2320 nM and the GI50 [45] was 13.3 µM. The GI50 [46] was 5.62 µM, the GI50 [47] was 3.08 µM and the GI50 [48] was 1400 nM. The GI50 [49] was 2440 nM, the GI50 [50] was 3.75 µM and the GI50 [51] was 28 µM. For the same compound, the GI50 [52] was 4.2 µM, the GI50 [53] was 5.13 µM and the GI50 [54] was 3.04 µM. For the same compound, the GI50 [55] was 2310 nM, the GI50 [56] was 8.8 µM and the GI50 [57] was 6.35 µM. The GI50 [58] was 3.25 µM, the GI50 [59] was 2940 nM and the EC [60] was greater than 10 µM. For the same compound, the GI50 [61] was 1490 nM, the GI50 [62] was 3.69 µM and the GI50 [63] was 519 nM.
